# Assay results taken from patent US10577367B2, “IRAK4 inhibiting agents” (BIOGEN MA INC., priority 2014, dated 2020).
# Target: IRAK4 (Homo sapiens (Human), UniProt Q9NWZ3)
# Test: IRAK-4 AlphaScreen biochemical kinase assay
# Conditions: 1 nM IRAK4, 1 mM ATP, 3.5 h at RT
# Protocol: The biochemical assay is in a AlphaScreen format. The kinase reaction is based on the IRAK-4 phosphorylation of a biotin labeled peptide. The phosphopeptide is incubated with anti-phosphothreonine antibody as well as streptavidin- and protein A-coated beads. Binding of the protein-A coated beads to the antibody and the streptavidin beads to the peptide, leads to an energy transfer from one bead to the other, ultimately producing a luminescent/fluorescent signal.
# The compounds described herein were tested for in the above biochemical assay.
# Chain of IRAK4 (Q9NWZ3 whole entry, species assumed): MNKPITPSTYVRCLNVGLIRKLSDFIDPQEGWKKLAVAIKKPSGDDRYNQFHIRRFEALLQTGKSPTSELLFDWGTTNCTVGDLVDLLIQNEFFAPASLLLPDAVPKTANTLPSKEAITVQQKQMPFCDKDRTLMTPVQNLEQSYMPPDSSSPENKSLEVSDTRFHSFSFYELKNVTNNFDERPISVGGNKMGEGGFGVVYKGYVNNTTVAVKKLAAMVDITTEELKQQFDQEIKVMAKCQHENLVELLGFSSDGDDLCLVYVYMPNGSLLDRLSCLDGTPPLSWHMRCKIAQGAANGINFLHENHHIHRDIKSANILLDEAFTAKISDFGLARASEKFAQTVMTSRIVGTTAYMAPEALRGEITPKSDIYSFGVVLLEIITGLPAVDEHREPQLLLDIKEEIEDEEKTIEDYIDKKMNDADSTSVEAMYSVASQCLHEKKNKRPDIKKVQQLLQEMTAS
row,IC50,Structure (SMILES)
1,< 100 nM,"CCC(N)c1cccc(-c2ccc3cnc(-c4cccc(C)n4)n3c2)n1 (stereo not drawn) [Example 275, 1-(6-(3-(6-methylpyridin-2-yl)imidazo[1,5-a]pyridin-6-yl)pyridin-2-yl)propan-1-amine]"
2,< 100 nM,"CCCC(N)c1cccc(-c2ccc3cnc(-c4cccc(C)n4)n3c2)n1 (stereo not drawn) [Example 276, 1-(6-(3-(6-methylpyridin-2-yl)imidazo[1,5-a]pyridin-6-yl)pyridin-2-yl)butan-1-amine]"
3,< 100 nM,"CCC[C@H](N)c1cccc(-c2cc(C3=CCN(C)CC3)c3cnn(-c4cccc(CO)n4)c3c2)n1 [Example 423, (S)-(6-(6-(6-(1-aminobutyl)pyridin-2-yl)-4-(1-methyl-1,2,3,6-tetrahydropyridin-4-yl)-1H-indazol-1-yl)pyridin-2-yl)methanol]"
4,< 100 nM,"CCC[C@H](N)c1cccc(-c2cc(N3CCCCC3)c3cnn(-c4cccc(CO)n4)c3c2)n1 [Example 324, (S)-(6-(6-(6-(1-aminobutyl)pyridin-2-yl)-4-(piperidin-1-yl)-1H-indazol-1-yl)pyridin-2-yl)methanol]"
5,> 10000 nM,"O=C1CCCc2ccc(-c3ccc4cnn(-c5cccc(C(F)(F)F)n5)c4c3)nc21 [Example 212, 2-(1-(6-(trifluoromethyl)pyridin-2-yl)-1H-indazol-6-yl)-6,7-dihydroquinolin-8(5H)-one]"

row,Structure (SMILES),IC50
1,"N#Cc1cc(-c2cncc(NC(=O)C(F)(F)F)c2)cc2c1cnn2-c1cccc(C(F)(F)F)n1 [Example 208, N-(5-(4-cyano-1-(6-(trifluoromethyl)pyridin-2-yl)-1H-indazol-6-yl)pyridin-3-yl)-2,2,2-trifluoroacetamide]",> 10000 nM
